Measured values reported in patent US10159655B2, “Agent for inhibiting odor of pyrazine derivatives” (Kao Corporation, priority 2012, dated 2018).

Each compound was assayed against T1, olfactory receptor OR5K1 (Homo sapiens, UniProt Q8NHB7) (assay: Luciferase reporter gene assay: response of olfactory receptor OR5K1 expressed in HEK293 cells to pyrazine compounds). Conditions: 0, 3, 10, 30, 100, 300 and 1000 μM; HEK293 cells with RTP1S variant; FIG. 2.
T1 construct: expressed in transfected cells; host or cells: HEK293
T1 sequence (Q8NHB7 1-308): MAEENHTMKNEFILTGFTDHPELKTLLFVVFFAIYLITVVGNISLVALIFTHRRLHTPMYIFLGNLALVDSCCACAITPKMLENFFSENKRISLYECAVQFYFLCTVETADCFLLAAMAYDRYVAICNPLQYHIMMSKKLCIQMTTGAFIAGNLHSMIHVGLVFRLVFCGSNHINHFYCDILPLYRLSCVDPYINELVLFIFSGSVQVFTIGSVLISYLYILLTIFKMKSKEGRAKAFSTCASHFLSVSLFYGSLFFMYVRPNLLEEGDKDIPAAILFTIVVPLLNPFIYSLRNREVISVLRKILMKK
Type: cell-based
Description: Human olfactory receptors were cloned based on sequence information registered in GenBank by PCR using human genomic DNA female (G1521: Promega Corporation) as a template. Each gene amplified by PCR was inserted into a pENTR vector (Invitrogen Inc.) in accordance with the manual and was recombined into the NotI and AscI site located downstream of a Flag-Rho tag sequence in a pME18S vector using the NotI and AscI site present in the pENTR vector.
An RTP1S variant gene (SEQ ID NO: 3) encoding an RTP1S variant (SEQ ID NO: 4) was inserted into the EcoRI and XhoI site of a pME18S vector.
HEK293 cells expressing 373 types of human olfactory receptors were produced. A reaction solution having a composition shown in Table 1 was prepared and left to stand in a clean bench for 15 min and then was dispensed in each well of a 96-well plate (Becton, Dickinson and Company). Subsequently, HEK293 cells (100 μL, 3×10^5 cells/cm^2) were seeded in each well and cultured in an incubator at 37° C. and 5% CO2 for 24 hr.
An olfactory receptor expressed in HEK293 cells couples with endogenous Gas in the cells to activate adenylate cyclase and thereby increases the amount of intracellular cAMP. In this study, the response of a pyrazine derivative was measured by luciferase reporter gene assay which monitors an increase in amount of intracellular cAMP as the luminescence value derived from a firefly luciferase gene (fluc2P-CRE-hygro). A Renilla luciferase gene was fused downstream of a CMV promoter (hRluc-CMV) and was also introduced to HEK293 cells as an internal standard to correct errors in transgenic efficiency and number of cells.
The culture medium was removed from the culture produced in the above 3), and 75 μL of a solution prepared with a CD293 medium (Invitrogen Inc.) so as to contain a pyrazine derivative (1 mM, 2,6-dimethylpyrazine) was added thereto. The cells were cultured in a CO2 incubator for 2.5 hr to sufficiently express the luciferase gene in the cells. The luciferase activity was measured with a Dual-Glo™ luciferase assay system (Promega Corporation) in accordance with the operating manual of the system. The fold increases were calculated by dividing the luminescence value derived from firefly luciferase induced by stimulation with a pyrazine derivative at each concentration by the luminescence value in cells not stimulated with the pyrazine derivative and were used as an index of response strength.
Olfactory receptor OR5K1 (SEQ ID NO: 2) was expressed in HEK293 cells together with an RTP1S variant (SEQ ID NO: 4) by the same procedure as in Example 1, and the dependency of the response on the concentration (0, 3, 10, 30, 100, 300, and 1000 μM) of various pyrazine compounds was investigated. The pyrazine compounds used in this Example were pyrazine and pyrazine derivatives selected from the group consisting of 2-methylpyrazine, 2,3-dimethylpyrazine, 2,5-dimethylpyrazine, 2,3,5-trimethylpyrazine, 2,3,5,6-tetramethylpyrazine, and 2-ethylpyrazine.

| SMILES | dependency of the response of OR5K1 on the concentration of pyrazine compounds |
| --- | --- |
| Cc1nc(C)c(C)nc1C [2,3,5,6-tetramethylpyrazine] | dose-dependently responded |
| Cc1cnc(C)cn1 [2,5-dimethylpyrazine] | dose-dependently responded |
| Cc1cnc(C)c(C)n1 [2,3,5-trimethylpyrazine] | dose-dependently responded |
| CCc1cnccn1 [2-ethylpyrazine] | dose-dependently responded |
| Cc1cnccn1 [2-methylpyrazine] | dose-dependently responded |
| c1cnccn1 [pyrazine] | did not respond |
| Cc1cncc(C)n1 [2,6-dimethylpyrazine] | dose-dependently responded |
| Cc1nccnc1C [2,3-dimethylpyrazine] | dose-dependently responded |

Same assay, conditions: 1 mM; 373 types of human olfactory receptors screened in HEK293 cells; FIG. 1

| SMILES | response of olfactory receptor to 2,6-dimethylpyrazine (fold increase of luciferase luminescence) |
| --- | --- |
| Cc1cncc(C)n1 [2,6-dimethylpyrazine] | responded |
